Test results taken from patent US20210145833A1, “Methods and Compositions for Hair Growth by Activating Autophagy” (The Regents of the University of California, priority 2018, published 2021).
“Also recorded” adds a separate entry of the source.

What was measured:
[1] = tested on: C57BL/6J mouse dorsal skin; assay: Assay for hair regeneration in mice (topical treatment of shaved telogen dorsal skin); settings: for Rapid anagen entry on whole dorsal telogen skin: among treated mice
Protocol: Anagen in black mice is macroscopically recognizable by the melanin pigment visible through the skin, as the melanogenic activity of follicular melanocytes is strictly coupled to the anagen stage of the hair cycle.
All compounds were tested in both male and female mice. Every experiment was repeated independently at least 2 times. Some treatments with different agents were performed concurrently with shared control arms. C57BL/6J male mice were obtained at 6 or 8 weeks of age from Jackson Laboratories (Bar Harbor, ME). C57BL/6J female mice were obtained at 8 weeks of age from Jackson Laboratories (Bar Harbor, Me.). Mice were fed a standard chow diet and provided ad libitum access to food and water throughout the study. Mice were shaved dorsally in telogen, i.e., postnatal days of about 43-45 for males (unless otherwise indicated) and Day 58 for females, respectively. Vehicle control (25 μL DMSO, unless otherwise indicated) or test compounds (in 25 μL DMSO, unless otherwise indicated) were topically applied on the shaved skin every other day (unless otherwise described) for the duration of the experiments (3-6 weeks). Appearance of skin pigmentation and hair growth were monitored and documented by photos and videos. Progression was also assigned a value from 0 to 100 based on pigmentation levels and hair shaft density, with 0 indicating no hair growth (and no pigmentation) and higher number corresponding to darker skin and larger areas of dense hair growth. […] The vehicle DMSO was also mixed with PLO base for topical application.

[2] = tested on: autophagy related markers; assay: Western blot analysis of autophagy related markers in telogen skin; assay type: in vivo, mouse
Protocol: (§1) Male mice were shaved and treated every other day starting on Postnatal Day 43. After 5 days, telogen skin samples were harvested and stage confirmed. Mouse skin tissue lysate was prepared by homogenization in T-PER Tissue Protein Extraction Buffer (Thermo Scientific, 78510) with protease inhibitors (Roche, 11836153001) and phosphatase inhibitors (Sigma, P5726) by FastPrep-24 (MP Biomedicals). Tissue and cell debris were removed by centrifugation and the lysate was boiled for 5 min in 1×SDS loading buffer containing 5% β-mercaptoethanol. Samples were then subjected to SDS-PAGE on NuPAGE Novex 12% Bis-Tris gels (Invitrogen, NP0343BOX), and western blotting was carried out with antibodies against LC3 (Novus, NB100-2220), p62 (Sigma, P0068), Phospho-Beclin-1 (Ser15) (corresponding to Ser14 in mouse) (Cell Signaling, 84966), Phospho-Beclin-1 (Ser93) (corresponding to Ser91 in mouse) (Cell Signaling, 14717), Beclin-1 (Abcam, ab207612), or GAPDH (Ambion, AM4300).

aged C57BL/6J mice [3] = assay: Topical treatment of shaved aged mice (pilot experiments); assay type: in vivo, mouse; settings: pilot experiments on aged mice (data not shown)
Protocol: For oral α-KB treatment, aged male and female C57BL/6J mice were obtained at 87 weeks of age (NIA aged rodent colonies). Mice were housed in a controlled SPF facility (22±2° C., 6:00-18:00, 12 h/12 h light/dark cycle) at UCLA. […] For topical α-KB treatment, aged male C57BL/6J mice were obtained at 21 months of age (NIA aged rodent colonies), shaved the following week, and topically treated with α-KB (32 mM) every other day for one month. All experiments were approved by the UCLA Chancellor's Animal Research Committee.

hair follicles = settings: treatment group vs control
Text: Mouse dorsal skin was shaved before being collected for histological and molecular analyses. Full-thickness skin tissue was then fixed in 10% formalin solution (Sigma, HT501128) overnight and dehydrated for embedding in paraffin. […] Images were captured by Leica Aperio ScanScope AT brightfield system at ×20 magnification.

aged C57BL/6J mice [4] = assay: Oral α-KB treatment of aged mice (hair loss / hair coating); assay type: in vivo, mouse; settings: 8 mM in drinking water over 30 weeks, aged female mice, 131 weeks of age
Protocol: For oral α-KB treatment, aged male and female C57BL/6J mice were obtained at 87 weeks of age (NIA aged rodent colonies). Mice were housed in a controlled SPF facility (22±2° C., 6:00-18:00, 12 h/12 h light/dark cycle) at UCLA. […] Treatment with either water (vehicle control), or α-KB (90 mg/kg bodyweight) in drinking water, started when mice were at 101 weeks of age. For topical α-KB treatment, aged male C57BL/6J mice were obtained at 21 months of age (NIA aged rodent colonies), shaved the following week, and topically treated with α-KB (32 mM) every other day for one month. All experiments were approved by the UCLA Chancellor's Animal Research Committee.

LC3 = assay: Western blot of treated mouse skin: LC3; assay type: in vivo; settings: telogen skin of mice treated topically 5 days
Protocol: (§2) Male mice were shaved and treated every other day starting on Postnatal Day 43. After 5 days, telogen skin samples were harvested and stage confirmed. […] Tissue and cell debris were removed by centrifugation and the lysate was boiled for 5 min in 1×SDS loading buffer containing 5% β-mercaptoethanol.

[5] = tested on: Beclin 1 S14 phosphorylation; assay: Western blot of treated mouse skin: phosphorylated Beclin 1 S14; assay type: in vivo; settings: Day 5 post-treatment
Protocol: as §2

[6] = tested on: Beclin 1 S91 phosphorylation; assay: Western blot of treated mouse skin: phosphorylated Beclin 1 S91; assay type: in vivo
Protocol: as §1

p62/SQSTM1 = assay: Western blot of treated mouse skin: p62; assay type: in vivo; settings: treated mouse telogen skin
Protocol: as §2

p62 transcript = assay: Quantitative RT-PCR of p62 transcript in treated skin; assay type: in vivo, mouse; settings: 24 hours post-treatment, B2m internal control
Protocol: At 24 hours post-treatment, telogen skin samples were harvested and total RNA was isolated using TRIzol reagent (Invitrogen) from whole thickness mouse skin tissue. cDNA was synthesized using iScript Reverse Transcription Supermix (Bio-Rad). iTaq Universal SYBR Green Supermix (Bio-Rad) and a Bio-Rad CFX Connect instrument were used for quantitative RT-PCR. The primer sequences used for RT-qPCR are as follows: […]

NC(=O)c1ncn([C@@H]2O[C@H](COP(=O)(O)O)[C@@H](O)[C@H]2O)c1N [AICAR, 5-aminoimidazole-4-carboxamide ribonucleotide]
Rapid anagen entry on whole dorsal telogen skin [1]: never | Hair regeneration ([1]; male mice shaved Postnatal Day 44, topical 16 mM every other day, Day 41 post-treatment): induces hair regeneration; also recorded: stimulated

CN(C)C(=N)N=C(N)N [metformin]
Autophagy induction ([2]; topical treatment of mouse skin): similarly induced | Rapid anagen entry on whole dorsal telogen skin [1]: never | Hair regeneration ([1]; male mice shaved Postnatal Day 43, topical 160 mM every other day, vehicle H2O, Day 48 post-treatment): induces hair regeneration; also recorded: similarly induced

Cc1cc(Nc2cc(Cl)nc(Oc3ccc([N+](=O)[O-])cc3)n2)n[nH]1 [autophinib]
Effect of co-treatment on hair regeneration by α-KG (64 mM) ([1]; autophinib 4 mM, male mice shaved Postnatal Day 53, topical every other day, Day 20 post-treatment): inhibits hair regeneration by α-KG | Effect of co-treatment on SMER28 (2 mM) induced hair regeneration ([1]; autophinib 4 mM, mice shaved Postnatal Day 51, topical every other day, Day 20 post-treatment): inhibited; also recorded: prevented hair regeneration by SMER28

CO[C@H]1C[C@@H]2CC[C@@H](C)[C@@](O)(O2)C(=O)C(=O)N2CCCC[C@H]2C(=O)O[C@H]([C@H](C)C[C@@H]2CC[C@@H](O)[C@H](OC)C2)CC(=O)[C@H](C)/C=C(\C)[C@@H](O)[C@@H](OC)C(=O)[C@H](C)C[C@H](C)/C=C/C=C/C=C/1C [rapamycin]
Adverse skin effect ([1]; topical 16 μM (data not shown)): hair loss and open wounds

O=C(O)CCC(=O)C(=O)O [α-KG, α-ketoglutarate]
Hair growth / regeneration in shaved aged animals (aged C57BL/6J mice [3]): did not visibly increase | Follicles and proliferation marker Ki-67 expression (hair follicles): More follicles and high proliferation marker Ki-67 expression

CCC(=O)C(=O)O [α-KB, α-ketobutyrate]
Hair loss / hair coating in aged mice (aged C57BL/6J mice [4]): negates hair loss; also recorded: greatly improved hair coating | Hair growth / regeneration in shaved aged animals (aged C57BL/6J mice [3]): only moderately promoted hair growth | LC3 expression (Western blot) (LC3): elevated | Phosphorylated Beclin 1 (Western blot) ([2]; telogen skin of mice treated 5 days): elevated | Rapid anagen entry on whole dorsal telogen skin [1]: never | Hair regeneration ([1]; male mice shaved Postnatal Day 44, topical 32 mM every other day, Day 39 post-treatment): induces hair regeneration; also recorded: substantially induced skin pigmentation and hair regeneration

CO/C1=C\C(C)=C\[C@@H](C)[C@@H](O)[C@@H](C)C/C(C)=C/C=C/[C@H](OC)[C@@H]([C@@H](C)[C@@H](O)[C@H](C)[C@@]2(O)C[C@@H](O)[C@H](C)[C@@H](C(C)C)O2)OC1=O [bafilomycin A1]
Effect of co-treatment on hair regeneration by α-KG (64 mM) ([1]; bafilomycin 200 μM, male mice shaved Postnatal Day 52, topical every other day, Day 21 post-treatment): inhibits hair regeneration by α-KG

CC[C@H]1/C=C/C=C/C[C@@H](C)[C@H](O)[C@@](C)(O)C(=O)[C@@H](C)[C@H](O)[C@@H](C)C(=O)[C@@H](C)[C@H](O)[C@@H](C)/C=C/C(=O)O[C@@H]2[C@H](C)[C@H](CC1)O[C@]1(CC[C@H](C)[C@H](C[C@@H](C)O)O1)[C@H]2C [oligomycin]
LC3 expression (Western blot) (LC3): Increased autophagy | Beclin 1 S14 phosphorylation (mTOR-dependent) [5]: increased | Beclin 1 S91 phosphorylation (AMPK-dependent) [6]: increased | Rapid anagen entry on whole dorsal telogen skin [1]: observed from time to time | Hair regeneration in female mice ([1]; female mice shaved Postnatal Day 58, topical 10 μM every other day, Day 26 post-treatment): stimulate hair regeneration | Hair regeneration ([1]; male mice shaved Postnatal Day 44, topical 100 μM every other day, Day 23 post-treatment): similarly promoted hair regeneration | Hair regeneration ([1]; male mice shaved Postnatal Day 44, topical 100 μM every other day, Day 23 post-treatment, listed as Oligomycin): induces hair regeneration

C=CCNc1ncnc2ccc(Br)cc12 [SMER28]
LC3 expression (Western blot) (LC3): increased | p62 expression (Western blot) (p62/SQSTM1): increased | Beclin 1 S14 phosphorylation (mTOR-dependent) [5]: not increased | Beclin 1 S91 phosphorylation (AMPK-dependent) [6]: not increased | p62 transcript levels (quantitative RT-PCR) (p62 transcript): increased | Rapid anagen entry on whole dorsal telogen skin [1]: observed from time to time | Hair regeneration ([1]; male mice shaved Postnatal Day 45, topical 1 mM daily, Day 23 post-treatment): greatly induced hair regeneration | Hair regeneration ([1]; mice shaved Postnatal Day 51, topical 2 mM every other day, Day 20 post-treatment): induced hair regeneration
